Results: ChEMBL document CHEMBL4706525, “Designing an eEF2K-Targeting PROTAC small molecule that induces apoptosis in MDA-MB-231 cells” (Eur J Med Chem, 2020)
Each block holds one compound with its values, some of them ahead of it. Active and inactive are the calls of the source. The calls are words filed in the database; no cut-off is given here.

Key:
[1] = target: T1, Protein cereblon/Eukaryotic elongation factor 2 kinase (Homo sapiens) (UniProt O00418+Q96SW2); experiment: Protac activity at eEF2K/E3 ubiquitin ligase in human MDA-MB-231 cells assessed as degradation of eEF2K at 200 uM measured after 24 hrs by western blot assay; type: cell-based
[2] = system: MDA-MB-231; experiment: Induction of apoptosis in human MDA-MB-231 cells at 100 uM measured after 24 hrs by Hoechst staining based fluorescence microscopic method; type: functional, cell-based
[3] = system: MDA-MB-231; experiment: Antiproliferative activity against human MDA-MB-231 cells at 100 uM measured by crystal violet staining based colony forming assay; type: functional, cell-based
[4] = system: MDA-MB-231; experiment: Induction of apoptosis in human MDA-MB-231 cells assessed as necrotic cells at 100 uM measured after 24 hrs by Annexin V/PI staining based flowcytometry method (reference value: 0.44%); type: functional
[5] = system: MDA-MB-231; experiment: Induction of apoptosis in human MDA-MB-231 cells assessed as upregulation of Bax expression at 50 to 200 uM measured after 24 hrs by western blot assay; type: functional, cell-based; details: dose 50-200 µM
[6] = target: T1, Protein cereblon/Eukaryotic elongation factor 2 kinase (Homo sapiens); experiment: Protac activity at eEF2K/E3 ubiquitin ligase in human MDA-MB-231 cells assessed as degradation of eEF2K at 100 uM pretreated with thalidomide for 2 hrs followed by compound addition measured after 8 hrs by western blot assay; type: cell-based
[7] = system: MDA-MB-231; experiment: Induction of apoptosis in human MDA-MB-231 cells assessed as decrease in Bcl2 expression at 50 to 200 uM measured after 24 hrs by western blot assay; type: functional, cell-based; details: dose 50-200 µM
[8] = system: MDA-MB-231; experiment: Induction of apoptosis in human MDA-MB-231 cells assessed as late apoptotic cells at 100 uM measured after 24 hrs by Annexin V/PI staining based flowcytometry method (reference value: 1.81%); type: functional
[9] = system: MDA-MB-231; experiment: Induction of apoptosis in human MDA-MB-231 cells assessed as early apoptotic cells at 50 uM measured after 24 hrs by Annexin V/PI staining based flowcytometry method (reference value: 3.12%); type: functional
[10] = system: MDA-MB-231; experiment: Induction of apoptosis in human MDA-MB-231 cells assessed as viable cells at 200 uM measured after 24 hrs by Annexin V/PI staining based flowcytometry method (reference value: 94.63%); type: functional; details: read-out: Activity
[11] = target: T1, Protein cereblon/Eukaryotic elongation factor 2 kinase (Homo sapiens); experiment: Protac activity at eEF2K/E3 ubiquitin ligase in human MDA-MB-231 cells assessed as degradation of eEF2K at 12.5 to 200 uM measured after 24 hrs by western blot assay; type: cell-based; details: dose 12.5-200 µM
[12] = target: T1, Protein cereblon/Eukaryotic elongation factor 2 kinase (Homo sapiens); experiment: Protac activity at eEF2K/E3 ubiquitin ligase in human MDA-MB-231 cells assessed as degradation of p-eEF2K measured after 24 hrs by western blot assay; type: cell-based; details: dose 50-200 µM
[13] = system: MDA-MB-231; experiment: Induction of apoptosis in human MDA-MB-231 cells assessed as necrotic cells at 200 uM measured after 24 hrs by Annexin V/PI staining based flowcytometry method (reference value: 0.44%); type: functional
[14] = target: T1, Protein cereblon/Eukaryotic elongation factor 2 kinase (Homo sapiens); experiment: Protac activity at eEF2K/E3 ubiquitin ligase in human MDA-MB-231 cells assessed as degradation of eEF2K measured after 24 hrs by western blot assay; type: cell-based; details: dose 50-200 µM
[15] = system: MDA-MB-231; experiment: Induction of apoptosis in human MDA-MB-231 cells assessed as late apoptotic cells at 200 uM measured after 24 hrs by Annexin V/PI staining based flowcytometry method (reference value: 1.81%); type: functional
[16] = system: MDA-MB-231; experiment: Induction of apoptosis in human MDA-MB-231 cells assessed as upregulation of cleaved caspase3 expression at 50 to 200 uM measured after 24 hrs by western blot assay; type: functional, cell-based; details: dose 50-200 µM
[17] = system: MDA-MB-231; experiment: Induction of apoptosis in human MDA-MB-231 cells assessed as early apoptotic cells at 100 uM measured after 24 hrs by Annexin V/PI staining based flowcytometry method (reference value: 3.12%); type: functional
[18] = system: MDA-MB-231; experiment: Induction of apoptosis in human MDA-MB-231 cells assessed as necrotic cells at 50 uM measured after 24 hrs by Annexin V/PI staining based flowcytometry method (reference value: 0.44%); type: functional
[19] = system: MDA-MB-231; experiment: Induction of apoptosis in human MDA-MB-231 cells assessed as early apoptotic cells at 200 uM measured after 24 hrs by Annexin V/PI staining based flowcytometry method (reference value: 3.12%); type: functional
[20] = system: MDA-MB-231; experiment: Induction of apoptosis in human MDA-MB-231 cells assessed as late apoptotic cells at 50 uM measured after 24 hrs by Annexin V/PI staining based flowcytometry method (reference value: 1.81%); type: functional
[21] = system: MCF-10A; experiment: Cytotoxicity against human MCF-10A cells; type: cell-based
[22] = system: MDA-MB-231; experiment: Induction of apoptosis in human MDA-MB-231 cells assessed as viable cells at 50 uM measured after 24 hrs by Annexin V/PI staining based flowcytometry method (reference value: 94.63%); type: functional; details: read-out: Activity
[23] = target: T1, Protein cereblon/Eukaryotic elongation factor 2 kinase (Homo sapiens); experiment: Protac activity at eEF2K/E3 ubiquitin ligase in human MDA-MB-231 cells assessed as degradation of eEF2K at 100 uM pretreated with MG-132 for 2 hrs followed by compound addition measured after 8 hrs by western blot assay; type: cell-based
[24] = system: MDA-MB-231; experiment: Induction of apoptosis in human MDA-MB-231 cells assessed as viable cells at 100 uM measured after 24 hrs by Annexin V/PI staining based flowcytometry method (reference value: 94.63%); type: functional; details: read-out: Activity
[25] = target: T2, Eukaryotic elongation factor 2 kinase (Homo sapiens, UniProt O00418); experiment: Inhibition of eEF2K (unknown origin)
T2 sequence (O00418 whole entry): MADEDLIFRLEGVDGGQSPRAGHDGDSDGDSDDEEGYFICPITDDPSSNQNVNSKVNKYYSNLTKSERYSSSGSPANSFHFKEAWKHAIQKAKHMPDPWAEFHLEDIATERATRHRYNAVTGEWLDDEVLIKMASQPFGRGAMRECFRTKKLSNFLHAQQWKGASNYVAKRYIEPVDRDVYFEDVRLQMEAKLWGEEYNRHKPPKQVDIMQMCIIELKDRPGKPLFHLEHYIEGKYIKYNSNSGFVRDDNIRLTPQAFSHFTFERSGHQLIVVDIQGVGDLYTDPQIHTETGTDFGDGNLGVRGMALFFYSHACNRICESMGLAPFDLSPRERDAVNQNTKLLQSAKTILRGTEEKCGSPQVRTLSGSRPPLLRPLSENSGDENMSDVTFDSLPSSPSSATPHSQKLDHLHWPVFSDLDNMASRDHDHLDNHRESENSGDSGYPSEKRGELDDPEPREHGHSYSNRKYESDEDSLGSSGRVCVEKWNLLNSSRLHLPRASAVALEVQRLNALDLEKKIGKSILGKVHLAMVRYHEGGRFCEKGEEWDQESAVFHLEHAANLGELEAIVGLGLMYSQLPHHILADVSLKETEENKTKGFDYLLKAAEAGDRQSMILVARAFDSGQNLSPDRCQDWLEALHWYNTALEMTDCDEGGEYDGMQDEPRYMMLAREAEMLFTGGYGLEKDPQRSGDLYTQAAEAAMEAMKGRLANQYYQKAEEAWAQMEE

[26] = system: MDA-MB-231; experiment: Effect on eEF2K expression in human MDA-MB-231 cells at 10 uM measured after 2 hrs by western blot assay; type: functional, cell-based

T1 sequence (Q96SW2 whole entry, looked up, one chain of several): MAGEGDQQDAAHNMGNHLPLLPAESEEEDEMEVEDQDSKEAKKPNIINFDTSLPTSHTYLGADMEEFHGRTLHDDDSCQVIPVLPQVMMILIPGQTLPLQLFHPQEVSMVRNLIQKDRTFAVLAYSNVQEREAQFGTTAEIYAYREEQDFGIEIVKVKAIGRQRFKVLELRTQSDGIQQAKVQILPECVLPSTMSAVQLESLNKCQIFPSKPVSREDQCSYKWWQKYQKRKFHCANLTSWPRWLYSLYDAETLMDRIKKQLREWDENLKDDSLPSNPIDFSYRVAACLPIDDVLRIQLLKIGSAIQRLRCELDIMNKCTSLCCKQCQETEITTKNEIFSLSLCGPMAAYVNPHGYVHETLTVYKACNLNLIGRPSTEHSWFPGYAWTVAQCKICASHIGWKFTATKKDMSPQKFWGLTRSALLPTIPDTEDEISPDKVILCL

Compound: CCn1c(=O)n(CC(=O)NCCOCCNc2cccc3c2C(=O)N(C2CCC(=O)NC2=O)C3=O)c(=O)c2cc(C(N)=O)c(N)cc21 (configuration not stated)
Activity [1]: 15%

Compound: NC(=O)c1cc2c(=O)n(CC(=O)NCCNc3cccc4c3C(=O)N(C3CCC(=O)NC3=O)C4=O)c(=O)n(C3CC3)c2nc1N (configuration not stated)
Activity [1]: inactive

Compound: NC(=O)c1cc2c(=O)n(CC(=O)NCCCNc3cccc4c3C(=O)N(C3CCC(=O)NC3=O)C4=O)c(=O)n(C3CC3)c2nc1N (configuration not stated)
Activity [1]: inactive

Compound: NC(=O)c1cc2c(=O)n(CC(=O)NCCCCCNc3cccc4c3C(=O)N(C3CCC(=O)NC3=O)C4=O)c(=O)n(C3CC3)c2cc1N (configuration not stated)
Activity [1]: inactive

Compound: CCn1c(=O)c2cc(C(N)=O)c(N)nc2n(C2CC2)c1=O
Activity [2]: Active | Activity [3]: Active

Compound: CCn1c(=O)n(CC(=O)NCCOCCNC(=O)COc2cccc3c2C(=O)N(C2CCC(=O)NC2=O)C3=O)c(=O)c2cc(C(N)=O)c(N)nc21 (configuration not stated)
Activity [2]: Active | Activity [4]: 0.68% | Activity [5]: Active | Activity [6]: inactive | Activity [7]: Active | Activity [8]: 7.38% | Activity [1]: 56.7% | Activity [9]: 5.29% | viability at 200 µM [10]: 67.6% | Activity [11]: Active | Activity [12]: Active | Activity [13]: 1.57% | Activity [14]: Active | Activity [3]: Active | Activity [15]: 6.12% | Activity [16]: Active | Activity [17]: 7.51% | Activity [18]: 1.6% | Activity [19]: 24.72% | Activity [20]: 3.24% | Activity [21]: Toxic | viability at 50 µM [22]: 89.9% | Activity [23]: inactive | viability at 100 µM [24]: 84.4%

Compound: CCn1c(=O)n(CC(=O)NCCNc2cccc3c2C(=O)N(C2CCC(=O)NC2=O)C3=O)c(=O)c2cc(C(N)=O)c(N)nc21 (configuration not stated)
Activity [1]: inactive

Compound: CCn1c(=O)n(CC(=O)NCCCCNc2cccc3c2C(=O)N(C2CCC(=O)NC2=O)C3=O)c(=O)c2cc(C(N)=O)c(N)nc21 (configuration not stated)
Activity [1]: 35%

Compound: Cc1ccc(C2=NC(C)(O)CC(C(C)C)[Se]2)cc1 (configuration not stated)
IC50 [25]: 0.31 µM

Compound: CCn1c(=O)n(CC(=O)NCCCCCNc2cccc3c2C(=O)N(C2CCC(=O)NC2=O)C3=O)c(=O)c2cc(C(N)=O)c(N)cc21 (configuration not stated)
Activity [1]: 24%

Compound: CCn1c(=O)n(CC(=O)NCCCCCCNc2cccc3c2C(=O)N(C2CCC(=O)NC2=O)C3=O)c(=O)c2cc(C(N)=O)c(N)nc21 (configuration not stated)
Activity [1]: 20%

Compound: NC(=O)c1cc2c(=O)n(CC(=O)NCCOCCNC(=O)COc3cccc4c3C(=O)N(C3CCC(=O)NC3=O)C4=O)c(=O)n(C3CC3)c2cc1N (configuration not stated)
Activity [1]: inactive

Compound: N#CC1=C(N)SC(N)=C(C#N)C1c1ccccc1F
IC50 [25]: 60 µM

Compound: CCn1c(=O)n(CC(=O)NCCCNc2cccc3c2C(=O)N(C2CCC(=O)NC2=O)C3=O)c(=O)c2cc(C(N)=O)c(N)nc21 (configuration not stated)
Activity [1]: 20%

Compound: NC(=O)c1cc2c(=O)n(CC(=O)NCCOCCNc3cccc4c3C(=O)N(C3CCC(=O)NC3=O)C4=O)c(=O)n(C3CC3)c2cc1N (configuration not stated)
Activity [1]: inactive

Compound: O=C1CCC(N2C(=O)c3ccccc3C2=O)C(=O)N1 (configuration not stated)
Activity [26]: inactive

Compound: CCn1c(=O)n(CC(=O)NCCCCCNC(=O)COc2cccc3c2C(=O)N(C2CCC(=O)NC2=O)C3=O)c(=O)c2cc(C(N)=O)c(N)cc21 (configuration not stated)
Activity [1]: 32%

Compound: CCn1c(=O)n(CC(=O)NCCCNC(=O)COc2cccc3c2C(=O)N(C2CCC(=O)NC2=O)C3=O)c(=O)c2cc(C(N)=O)c(N)cc21 (configuration not stated)
Activity [1]: 15.4%

The remaining lines, values ahead:

Activity [1]: inactive
Compound: NC(=O)c1cc2c(=O)n(CC(=O)NCCCNC(=O)COc3cccc4c3C(=O)N(C3CCC(=O)NC3=O)C4=O)c(=O)n(C3CC3)c2cc1N (configuration not stated)

Activity [1]: inactive
Compound: NC(=O)c1cc2c(=O)n(CC(=O)NCCNC(=O)COc3cccc4c3C(=O)N(C3CCC(=O)NC3=O)C4=O)c(=O)n(C3CC3)c2nc1N (configuration not stated)

Activity [1]: inactive
Compound: NC(=O)c1cc2c(=O)n(CC(=O)NCCCCCCNc3cccc4c3C(=O)N(C3CCC(=O)NC3=O)C4=O)c(=O)n(C3CC3)c2nc1N (configuration not stated)

Activity [1]: inactive
Compound: NC(=O)c1cc2c(=O)n(CC(=O)NCCCCNC(=O)COc3cccc4c3C(=O)N(C3CCC(=O)NC3=O)C4=O)c(=O)n(C3CC3)c2nc1N (configuration not stated)

Activity [1]: inactive
Compound: NC(=O)c1cc2c(=O)n(CC(=O)NCCCCCNC(=O)COc3cccc4c3C(=O)N(C3CCC(=O)NC3=O)C4=O)c(=O)n(C3CC3)c2cc1N (configuration not stated)

Activity [1]: 35.3%
Compound: CCn1c(=O)n(CC(=O)NCCCCCCNC(=O)COc2cccc3c2C(=O)N(C2CCC(=O)NC2=O)C3=O)c(=O)c2cc(C(N)=O)c(N)nc21 (configuration not stated)

Activity [1]: 26%
Compound: CCn1c(=O)n(CC(=O)NCCCCNC(=O)COc2cccc3c2C(=O)N(C2CCC(=O)NC2=O)C3=O)c(=O)c2cc(C(N)=O)c(N)nc21 (configuration not stated)

Activity [1]: inactive
Compound: NC(=O)c1cc2c(=O)n(CC(=O)NCCCCNc3cccc4c3C(=O)N(C3CCC(=O)NC3=O)C4=O)c(=O)n(C3CC3)c2nc1N (configuration not stated)

Activity [1]: 10%
Compound: CCn1c(=O)n(CC(=O)NCCNC(=O)COc2cccc3c2C(=O)N(C2CCC(=O)NC2=O)C3=O)c(=O)c2cc(C(N)=O)c(N)nc21 (configuration not stated)

Activity [1]: inactive
Compound: NC(=O)c1cc2c(=O)n(CC(=O)NCCCCCCNC(=O)COc3cccc4c3C(=O)N(C3CCC(=O)NC3=O)C4=O)c(=O)n(C3CC3)c2nc1N (configuration not stated)
